In patent US6500849B1, “1-alkyl-, 1-alkenyl-, and 1-alkynylaryl-2-amino 1,3-propanediols and related compounds” (Aventis Pharmaceuticals Inc., priority 1990, dated 2002):

Legend:
[1] = tested on: Klebsiella spp.; assay: Aerobic antibacterial assay (agar dilution, Mueller-Hinton agar); conditions: aerobic, 24 hours at 37° C.
[2] = tested on: S. typhimurium; assay: as above; conditions: S. typhimurium; aerobic; 24 hours at 37° C.
[3] = tested on: Strept. faecium; assay: as above; conditions: Strept. faecium D; aerobic; 24 hours at 37° C.
[4] = tested on: female Swiss Webster mice; assay: Arachidonic acid-induced ear edema assay; format: in vivo; conditions: 1 mg/ear topical, arachidonic acid 4 mg/ear
Description: In the arachidonic acid-induced ear edema assay, the test compound was dissolved in 30/70 propylene glycol/ethanol and was applied to both ears of groups of 6 female Swiss Webster mice, which were housed together in a cage under standard conditions for 1 week prior to use with food and water ad lib, at a volume of 20 μl so that a total of 1.0 mg of test compound was delivered to each ear over the inner and outer surfaces. The same volume (20 μl) of vehicle was applied to each ear of a control group of mice. After 30 minutes, arachidonic acid was applied to the right ear of each mouse of each group in the amount of 4 mg/ear. Vehicle was applied to the left ear of each mouse of each group at a volume of 20 μl/ear. After an additional hour, the mice were sacrificed and a 4 mm plug was taken from each ear and weighed. The difference between the right and left ear plugs was determined for each animal. The antiinflammatory activity of the test compound is expressed as the mean percent change in the ear plug weight of the treated animals relative to the mean percent change in weights of control animals' ear. Antiinflammatory activity of representative compounds of the present invention as determined in this assay are presented below in Table 3.

[5] = molecular target: Protein kinase C; assay: Protein kinase C assay (32P incorporation into Type III histone); format: biochemical, rat; conditions: rat brain protein kinase C; phosphatidylserine/diacylglycerol stimulated; read-out: Protein Kinase Inhibitory Activity IC50
Description: (see U. Kikkawa, et al., Biochemical and Biophysical Research Communications, 135, 636 (1986) and R. M. Bell, et al. “Methods in Enzymology, Hormone Action,” Part J, P.M. Conn, Ed., Academic Press, Inc., New York, N.Y. 1986, page 353). Protein kinase C enzyme extract was prepared from the brain of male Wistar rats weighing 180 to 200 g and purified by the method of U. Kikkawa, et al., ibid. 636. The purified extract was stored at −80° C., and aliquots were used in the protein kinase C assay performed by a modification of the method of R. M. Bell, et al., ibid. al 354. To perform the assay, duplicate aliquots of duplicate samples are employed. Basal or unstimulated protein kinase C, phosphatidylserine/diacylglycerol stimulated protein kinase C, and test samples are run in each assay. […] The assay tubes were allowed to warm to 25° C. and an 8 μl mixture of adenosine 5′-triphosphate (100 μM) and ^32P-adenosine triphosphate (1 to 2×10^5 counts per minute) was added to each tube for a final volume of 80 μl per tube. After 2 min, the reaction (the incorporation of phosphorous into Type III histone) was terminated by spotting the assay mixture on phosphocellulose paper. The spots are cut out of the paper and the radioactivity (counts per min) of each spot was determined in a scintillation counter.

[6] = tested on: Bact. ovatus; assay: Anerobic antibacterial assay (agar dilution, Wilkins-Chalgren agar); format: cell-based; conditions: Bact. ovatus 103; anaerobic; 48 hours at 37° C.
[7] = tested on: Bact. thetaiotaom.; assay: as above; format: cell-based; conditions: anaerobic, 48 hours at 37° C.
[8] = tested on: female Swiss Webster mice; assay: TPA-induced ear edema assay; format: in vivo; conditions: 10 μg/ear topical, after about 5 hours
Description: In the TPA-induced ear edema assay, TPA (12-O-tetradecanoylphorbol-13-acetate) was dissolved in 30/70 propylene glycol/ethanol and was applied to the right ear of groups of 6 female Swiss Webster mice, which were housed together in a cage under standard conditions for 1 week prior to use with food and water ad lib, at a volume of 20 μl so that a total of 10 μg of TPA is delivered to the inner and outer surfaces of the ear. The test compound was dissolved in the vehicle and was applied to the right ear (the inner and outer surface) at a volume of 20 μl so that a total of 10 μg of the compound was delivered to the ear. After about 5 hours, the animals were sacrificed, a 4 mm diameter plug was taken from each ear and weighed. The difference between the right and left ear plug weights for each animal was determined. The antiinflammatory activity of the test compound is expressed as the mean percent change in the ear plug weight of the treated animals compared to the mean percent change in the plug weight of the control animals.

[9] = tested on: Staph. aureus; assay: Aerobic antibacterial assay (agar dilution, Mueller-Hinton agar); conditions: aerobic, 24 hours at 37° C.
[10] = tested on: Clost. tetani; assay: Anerobic antibacterial assay (agar dilution, Wilkins-Chalgren agar); format: cell-based; conditions: Clost. tetani 19406; anaerobic; 48 hours at 37° C.
[11] = tested on: E. coli; assay: Aerobic antibacterial assay (agar dilution, Mueller-Hinton agar); format: cell-based
[12] = tested on: Clost. perfringens; assay: microbe, parasite or virus in culture; format: cell-based; conditions: Clost. perfringens 194; anaerobic; 48 hours at 37° C.
[13] = tested on: Strept. pyogenes; assay: Aerobic antibacterial assay (agar dilution, Mueller-Hinton agar); conditions: aerobic, 24 hours at 37° C.
[14] = tested on: Bact. vulgatus; assay: Anerobic antibacterial assay (agar dilution, Wilkins-Chalgren agar); format: cell-based; conditions: Bact. vulgatus 1446; anaerobic; 48 hours at 37° C.
[15] = tested on: Fusobact. varium; assay: as above; format: cell-based; conditions: anaerobic, 48 hours at 37° C.
[16] = tested on: Bact. distasonis; assay: as above; format: cell-based; conditions: Bact. distasonis 1366; anaerobic; 48 hours at 37° C.
[17] = tested on: Peptostr. anaerobius; assay: as above; format: cell-based; conditions: Peptostr. anaerobius 932; anaerobic; 48 hours at 37° C.
[18] = tested on: Propionibact. acnes; assay: as above; format: cell-based; conditions: anaerobic, 48 hours at 37° C.
[19] = tested on: Bact. fragilis; assay: as above; format: cell-based; conditions: anaerobic, 48 hours at 37° C.
[20] = tested on: E. cloacae; assay: Aerobic antibacterial assay (agar dilution, Mueller-Hinton agar); conditions: aerobic, 24 hours at 37° C.

CCCCCCCCCCCCC/C=C/[C@@H](O)[C@@H](N)CO [D-erythro-sphingosine, reference compound]
Antibacterial activity (MIC, mg/l) ([1]; Klebsiella spp. 1082E): 25.0 mg/L | Antibacterial activity (MIC, mg/l) ([1]; Klebsiella spp. 1522E): >100.0 mg/L | Antibacterial activity (MIC, mg/l) [2]: >100.0 mg/L | Antibacterial activity (MIC, mg/l) [3]: 25.0 mg/L | Antiinflammatory Activity Percent Decrease in Ear Plug Weight at 1 mg/ear [4]: +9% | IC50 [5]: 6.7 µM | Antibacterial activity (MIC, mg/l) [6]: 12.5 mg/L | Antibacterial activity (MIC, mg/l) ([7]; Bact. thetaiotaom. 123): 25.0 mg/L | Antibacterial activity (MIC, mg/l) ([7]; Bact. thetaiotaom. 1428): 25.0 mg/L | Antibacterial activity (MIC, mg/l) ([7]; Bact. thetaiotaom. 1445): 25.0 mg/L | Antiinflammatory Activity Percent Decrease in Ear Plug Weight at 10 μg/ear [8]: 46% | Antibacterial activity (MIC, mg/l) ([9]; Staph. aureus 285): 25.0 mg/L | Antibacterial activity (MIC, mg/l) ([9]; Staph. aureus 503): 25.0 mg/L | Antibacterial activity (MIC, mg/l) ([9]; Staph. aureus SG511): 25.0 mg/L | Antibacterial activity (MIC, mg/l) [10]: 50.0 mg/L | Antibacterial activity (MIC, mg/l) ([11]; E. coli 1507E, 24 hours at 37° C.): >100.0 mg/L | Antibacterial activity (MIC, mg/l) ([11]; E. coli DC0, 24 hours at 37° C.): >100.0 mg/L | Antibacterial activity (MIC, mg/l) ([11]; E. coli DC2, 24 hours at 37° C.): 25.0 mg/L | Antibacterial activity (MIC, mg/l) ([11]; E. coli O 78, 24 hours at 37° C.): >100.0 mg/L | Antibacterial activity (MIC, mg/l) ([11]; E. coli TEM, 24 hours at 37° C.): >100.0 mg/L | Antibacterial activity (MIC, mg/l) [12]: 6.25 mg/L | Antibacterial activity (MIC, mg/l) ([13]; Strept. pyogenes 77 A): 25.0 mg/L | Antibacterial activity (MIC, mg/l) ([13]; Strept. pyogenes 308 A): 12.5 mg/L | Antibacterial activity (MIC, mg/l) [14]: 25.0 mg/L | Antibacterial activity (MIC, mg/l) ([15]; Fusobact. varium 3085): 25.0 mg/L | Antibacterial activity (MIC, mg/l) ([15]; Fusobact. varium 5262): 25.0 mg/L | Antibacterial activity (MIC, mg/l) [16]: 12.5 mg/L | Antibacterial activity (MIC, mg/l) [17]: 12.5 mg/L | Antibacterial activity (MIC, mg/l) ([18]; Propionibact. acnes 6919): 12.5 mg/L | Antibacterial activity (MIC, mg/l) ([18]; Propionibact. acnes 6922): 12.5 mg/L | Antibacterial activity (MIC, mg/l) ([19]; Bact. fragilis 312): 25.0 mg/L | Antibacterial activity (MIC, mg/l) ([19]; Bact. fragilis 960): 12.5 mg/L | Antibacterial activity (MIC, mg/l) ([19]; Bact. fragilis 1313): 25.0 mg/L | Antibacterial activity (MIC, mg/l) ([19]; Bact. fragilis 17390): 25.0 mg/L | Antibacterial activity (MIC, mg/l) ([19]; Bact. fragilis 18125): 25.0 mg/L | Antibacterial activity (MIC, mg/l) ([19]; Bact. fragilis 19016): 25.0 mg/L | Antibacterial activity (MIC, mg/l) ([20]; E. cloacae 1321E): 50.0 mg/L | Antibacterial activity (MIC, mg/l) ([20]; E. cloacae P99): >100.0 mg/L
